Data as given in patent US8513260B2, “Pyrazinylpyrazoles” (Bayer CropScience AG, priority 2009, dated 2013).
Read-outs that look alike come from different tables or passages of the source.

Columns and labels:
[1] = system: larvae of the mustard beetle (Phaedon cochleariae); assay: Phaedon test (PHAECO spray treatment); type: in vivo; settings: Chinese cabbage discs, after 7 days; for efficacy: 500 g/ha; for pest or weed control at 500 g/ha: Phaedon cochleariae, 168 h, read-out: efficacy
Experimental: Phaedon Test ([…] Spray Treatment) Solvent: 78.0 parts by weight of acetone • • 1.5 parts by weight of dimethylformamide Emulsifier: 0.5 part by weight of alkylaryl polyglycol ether To prepare an appropriate active ingredient preparation, 1 part by weight of active ingredient is mixed with the stated amounts of solvent and emulsifier, and the concentrate is diluted with emulsifier-containing water to the desired concentration. Discs of Chinese cabbage (Brassica pekinensis) are sprayed with an active ingredient preparation of the desired concentration and, after drying, populated with larvae of the mustard beetle (Phaedon cochleariae). After 7 days, the efficacy in % is determined. 100% means that all beetle larvae have been killed; 0% means that none of the beetle larvae have been killed.

Boophilus microplus = Boophilus microplus test (BOOPMI injection); type: in vivo; settings: 20 μg animal; injection into the abdomen; after 7 days, laying of fertile eggs
Experimental: Boophilus microplus Test (BOOPMI Injection) Solvent: dimethyl sulphoxide To prepare an appropriate active ingredient formulation, 10 mg of active ingredient are mixed with 0.5 ml of solvent and the concentrate is diluted with solvent to the desired concentration. The active ingredient solution is injected into the abdomen (Boophilus microplus), and the animals are transferred into dishes and stored in a climate-controlled room. The efficacy is assessed by laying of fertile eggs. After 7 days, the efficacy in % is determined. 100% means that none of the ticks has laid any fertile eggs.

[2] = system: red spider mite (Tetranychus urticae); assay: Tetranychus test, OP-resistant (TETRUR spray treatment); type: in vivo; settings: bean leaf discs, after 6 days
Experimental: Tetranychus Test, OP-Resistant (TETRUR Spray Treatment)
Solvent: 78.0 parts by weight of acetone • • 1.5 parts by weight of dimethylformamide
Emulsifier: 0.5 part by weight of alkylaryl polyglycol ether
To prepare an appropriate active ingredient preparation, 1 part by weight of active ingredient is mixed with the stated amounts of solvent and emulsifier, and the concentrate is diluted with emulsifier-containing water to the desired concentration. Discs of bean leaves (Phaseolus vulgaris) infested by all stages of the red spider mite (Tetranychus urticae) are sprayed with an active ingredient preparation of the desired concentration. After 6 days, the efficacy in % is determined. 100% means that all spider mites have been killed; 0% means that none of the spider mites have been killed.

[3] = logP by HPLC on reversed-phase columns (C 18), EEC Directive 79/831 Annex V.A8; type: physicochemical; settings: for chromatographic logP: reversed-phase C18 HPLC column, read-out: log P
From the text: [table] The calibration is effected with unbranched alkan-2-ones (having 3 to 16 carbon atoms) with known logP values (logP values determined on the basis of the retention times by linear interpolation between two successive alkanones).

[4] = system: caterpillars of the armyworm (Spodoptera frugiperda); assay: Spodoptera frugiperda test (SPODFR spray treatment); type: in vivo; settings: maize leaf discs, after 7 days; for efficacy: 500 g/ha; for pest or weed control at 500 g/ha: Spodoptera frugiperda, foliar, 168 h, read-out: efficacy
Experimental: Spodoptera frugiperda Test (SPODFR Spray Treatment) Solvent: 78.0 parts by weight of acetone • • 1.5 parts by weight of dimethylformamide Emulsifier: 0.5 part by weight of alkylaryl polyglycol ether To prepare an appropriate active ingredient preparation, 1 part by weight of active ingredient is mixed with the stated amounts of solvent and emulsifier, and the concentrate is diluted with emulsifier-containing water to the desired concentration. Discs of maize leaves (Zea mays) are sprayed with an active ingredient preparation of the desired concentration and, after drying, populated with caterpillars of the armyworm (Spodoptera frugiperda). After 7 days, the efficacy in % is determined. 100% means that all caterpillars have been killed; 0% means that none of the caterpillars have been killed.

[5] = * LC-MS, acidic range pH 2.7, 0.1% aqueous formic acid and acetonitrile
[6] = pH 2.7, * LC-MS, acidic range pH 2.7, 0.1% aqueous formic acid and acetonitrile

CCC(OC)c1nn(-c2nccnc2OC)c(N)c1-c1ccc(Cl)c(Cl)c1 (centres unmarked) [Ex. 3]
efficacy [1]: 100% | efficacy (Boophilus microplus): 100% | efficacy ([2]; 500 g/ha): 100%

CCCOc1nccnc1-n1nc(C(F)(F)F)c(-c2ccc(Br)cc2)c1N [Ex. 4]
pest or weed control at 500 g/ha [1]: 83% | chromatographic logP ([3]; pH 2.3, ** acidic range pH 2.3, 0.1% aqueous phosphoric acid and acetonitrile): 4.11 | pest or weed control at 500 g/ha ([2]; Tetranychus urticae, foliar, 144 h, 500 g/ha, read-out: efficacy): 90%

CC(C)Oc1nccnc1-n1nc(C(F)(F)F)c(-c2cc(Cl)cc(C(F)(F)F)c2)c1N [Ex. 13]
efficacy [1]: 83%

Cc1nccnc1-n1nc(C(F)(F)F)c(-c2cc(Cl)cc(C(F)(F)F)c2)c1N [Ex. 23]
efficacy [1]: 100% | efficacy ([2]; 500 g/ha): 100%

N#Cc1nccnc1-n1nc(C(F)(F)F)c(-c2cc(Cl)cc(C(F)(F)F)c2)c1N [Ex. 27]
efficacy [1]: 100%

CCOc1nccnc1-n1nc(C(F)(F)F)c(-c2cc(Cl)cc(C(F)(F)F)c2)c1N(Cc1ccccc1)Cc1ccccc1 [Ex. 34]
log P [3, 5]: 7*

CCOc1nccnc1-n1nc(C(F)(F)F)c(-c2cc(Cl)cc(C(F)(F)F)c2)c1NCc1ccccc1 [Ex. 35]
efficacy ([2]; 500 g/ha): 90%

CCOc1nccnc1-n1nc(C(F)(F)F)c(-c2cc(Cl)cc(C(F)(F)F)c2)c1N(Cc1ccc(OC)cc1)Cc1ccc(OC)cc1 [Ex. 43]
efficacy [4]: 100% | efficacy [1]: 100%

Nc1c(-c2cc(Cl)cc(C(F)(F)F)c2)c(C(F)(F)F)nn1-c1nccnc1-n1ccnc1 [Ex. 44]
efficacy [4]: 100% | efficacy [1]: 100%

COc1nccnc1-n1nc(C(F)(F)F)c(-c2ccccn2)c1N [Ex. 49]
chromatographic logP [3, 6]: 2.59

COc1nccnc1-n1nc(C(F)(F)F)c(-c2cncc(Br)c2)c1N [Ex. 50]
chromatographic logP [3, 6]: 2.62

COc1nccnc1-n1nc(C(F)(F)F)c(-c2ncc(Cl)cc2Cl)c1N [Ex. 52]
pest or weed control at 500 g/ha [1]: 100% | chromatographic logP [3, 6]: 2.94

COc1nccnc1-n1nc(C(F)(F)F)c(-c2ccc(Cl)cn2)c1N [Ex. 53]
chromatographic logP [3, 6]: 3.55

COc1nccnc1-n1nc(C(F)(F)C(F)(F)F)c(-c2ccc(Cl)cn2)c1N [Ex. 54]
chromatographic logP [3, 6]: 4.17

COc1nccnc1-n1nc(C(F)(F)F)c(-c2cccnc2Cl)c1N [Ex. 57]
chromatographic logP [3, 6]: 2.19

COc1nccnc1-n1nc(C(F)(F)C(F)(F)F)c(-c2ccc(Cl)nc2)c1N [Ex. 58]
chromatographic logP [3, 6]: 3.14

COc1nccnc1-n1nc(C(F)(F)C(F)F)c(-c2cc(Cl)c3c(c2)OCO3)c1N [Ex. 65]
efficacy [4]: 100% | efficacy [1]: 100% | efficacy ([2]; 500 g/ha): 90%

COc1nccnc1-n1nc(C(F)(F)C(F)F)c(-c2cc(Cl)c3c(c2)CCO3)c1N [Ex. 66]
efficacy [4]: 100% | efficacy [1]: 100% | efficacy ([2]; 500 g/ha): 90%

COc1nccnc1-n1nc(C2CC2)c(-c2cc(Cl)c3c(c2)OCO3)c1N [Ex. 79]
pest or weed control at 500 g/ha [4]: 100% | pest or weed control at 500 g/ha [1]: 100% | chromatographic logP [3, 6]: 2.79

COc1nccnc1-n1nc(C(F)(F)F)c(-c2cc(Cl)c(Cl)c(C(F)(F)F)c2)c1N [Ex. 86]
efficacy [4]: 100% | efficacy [1]: 100%

COc1nccnc1-n1nc(C(F)(F)F)c(-c2cc(Cl)c(Cl)c(Cl)c2)c1N [Ex. 87]
pest or weed control at 500 g/ha [4]: 100% | pest or weed control at 500 g/ha [1]: 100% | chromatographic logP [3, 6]: 4.35

C=C(C)CNc1c(-c2cc(Cl)cc(C(F)(F)F)c2)c(C(F)(F)F)nn1-c1nccnc1OC [Ex. 96]
efficacy ([2]; 500 g/ha): 100%

COc1nccnc1-n1nc(C(F)(F)C(F)F)c(-c2cc(Cl)c(Cl)c(Cl)c2)c1N [Ex. 116]
efficacy [4]: 100% | efficacy [1]: 100% | efficacy ([2]; 500 g/ha): 90%

COc1nccnc1-n1nc(C(F)(F)F)c(-c2cc(Cl)c(N(C)C)c(Cl)c2)c1N [Ex. 121]
efficacy [4]: 100% | efficacy [1]: 100% | efficacy ([2]; 100 g/ha): 80%

COc1nccnc1-n1nc(C(F)(F)F)c(-c2ccc(N(C)C)c(Cl)c2)c1N [Ex. 122]
efficacy [4]: 100% | efficacy [1]: 100%

COc1nccnc1-n1nc(C(F)(F)F)c(-c2cc(Cl)c(N(C)C)c(C(F)(F)F)c2)c1N [Ex. 123]
efficacy [4]: 100% | efficacy [1]: 100% | efficacy ([2]; 500 g/ha): 80%

COc1nccnc1-n1nc(C(F)(F)F)c(-c2cc(F)c(OC)c(Cl)c2)c1N [Ex. 124]
efficacy [4]: 100% | efficacy [1]: 100% | log P ([3]; *** LC-MS, neutral range pH 7.8, 0.001 molar aqueous ammonium hydrogencarbonate and acetonitrile): 3.5***; | efficacy ([2]; 500 g/ha): 90%

COc1cc(-c2c(C(F)(F)F)nn(-c3nccnc3OC)c2N)ccc1OCC(F)(F)F [Ex. 125]
efficacy [1]: 100% | efficacy ([2]; 500 g/ha): 90%

CCOc1cc(-c2c(C(F)(F)F)nn(-c3nccnc3OC)c2N)ccc1OCC(F)(F)F [Ex. 127]
efficacy [1]: 100% | efficacy ([2]; 500 g/ha): 90%

COc1ccc(-c2c(C(F)(F)F)nn(-c3nccnc3OC)c2N)c(Br)c1OC [Ex. 128]
chromatographic logP [3, 6]: 2.87

Nc1c(-c2cc(Cl)cc(C(F)(F)F)c2)c(C(F)(F)F)nn1-c1nccnc1C(F)(F)F [Ex. 130]
efficacy [4]: 100% | efficacy [1]: 100%

COc1cc(-c2c(C(F)(F)F)nn(-c3nccnc3OC)c2N)cc(Cl)c1OCC(F)(F)F [Ex. 134]
efficacy [4]: 100% | efficacy [1]: 100%

COc1nccnc1-n1nc(C(F)(F)F)c(-c2ccccc2Br)c1N [Ex. 137]
chromatographic logP [3, 6]: 3

COc1nccnc1-n1nc(C(F)(F)F)c(-c2ccccc2I)c1N [Ex. 138]
chromatographic logP [3, 6]: 3.09

CCOc1cc(-c2c(C(F)(F)F)nn(-c3nccnc3OC)c2N)cc(Br)c1OCC(F)(F)F [Ex. 140]
efficacy [4]: 100% | efficacy [1]: 100% | log P [3, 5]: 4.3*

COc1nccnc1-n1nc(C(F)(F)F)c(-c2c(F)ccc(Cl)c2Cl)c1N [Ex. 142]
pest or weed control at 500 g/ha [1]: 100% | chromatographic logP [3, 6]: 3.31

COc1nccnc1-n1nc(C(F)(F)F)c(-c2cc3c(cc2Cl)OCO3)c1N [Ex. 143]
chromatographic logP [3, 6]: 2.86

CCOc1cc(-c2c(C(F)(F)F)nn(-c3nccnc3OC)c2N)cc(Cl)c1OCC(F)(F)F [Ex. 144]
efficacy [4]: 100% | efficacy [1]: 100% | efficacy ([2]; 500 g/ha): 100%

COc1nccnc1-n1nc(C(F)(F)F)c(-c2ccc3c(c2)CCC(C)(C)O3)c1N [Ex. 145]
efficacy [1]: 100%

COc1cc(-c2c(C(F)(F)F)nn(-c3nccnc3OC)c2N)cc(I)c1OC [Ex. 147]
chromatographic logP [3, 6]: 3.47

COc1cc(-c2c(C(F)(F)C(F)F)nn(-c3nccnc3OC)c2N)cc(C(F)(F)F)c1OC [Ex. 157]
efficacy [4]: 100% | efficacy [1]: 100% | efficacy ([2]; 500 g/ha): 100%

CCc1nn(-c2nccnc2OC)c(N)c1-c1cc(Cl)c(OC)c(OC)c1 [Ex. 161]
pest or weed control at 500 g/ha [4]: 100% | pest or weed control at 500 g/ha [1]: 100% | chromatographic logP [3, 6]: 2.66

COc1nccnc1-n1nc(C(F)(F)F)c(-c2cc(F)c(Cl)cc2Cl)c1N [Ex. 166]
efficacy [1]: 100% | efficacy ([2]; 500 g/ha): 90%

COc1nccnc1-n1nc(C(F)(F)F)c(-c2cc3c(c(C(F)(F)F)c2)OCCO3)c1N [Ex. 173]
efficacy [4]: 100% | efficacy [1]: 100% | efficacy ([2]; 500 g/ha): 90%

COc1cc(-c2c(C(F)(F)F)nn(-c3nccnc3OC)c2N)cc(I)c1OC [Ex. 176]
log P [3, 5]: 3.87*

CCOc1nccnc1-n1nc(CC)c(-c2cc(Br)c3c(c2)OCO3)c1N [Ex. 177]
chromatographic logP [3, 6]: 3.03

CCc1nn(-c2nccnc2OC)c(N)c1-c1cc(Br)c2c(c1)OCO2 [Ex. 178]
chromatographic logP [3, 6]: 2.65

COc1nccnc1-n1nc(C(F)(F)F)c(-c2cc(Cl)cc(C(F)(F)F)c2)c1N(C)C [compound 107, 1-(3-methoxypyrazin-2-yl)-4-[3-chloro-5-(trifluoromethyl)phenyl]-3-(trifluoromethyl)-1H-pyrazole-5-dimethylamine]
efficacy [1]: 83% | log P [3, 5]: 5.11*
